These results are taken from patent US6355685B1, “Method of treating anxiety disorders” (Knoll Pharmaceutical Company, priority 1999, dated 2002).

For this assay, the system named is rat elevated plus-maze. In words: rat elevated plus-maze (animal model of anxiety). Particulars: 3 mg/kg po. In kind it is in vivo. The protocol: This model was carried out as described in J. Neurosci. Methods 1985; 14:149-167.

Turning to `CC(C)CC(N(C)C)C1(c2ccc(Cl)cc2)CCC1.Cl.O` (stereo not shown) [N-{1-[1-(4-chlorophenyl)cyclobutyl]-3-methylbutyl}-N,N-dimethylamine hydrochloride monohydrate], the “open: total arm entry ratio” value is given as “significant anxiolytic-like increase”.
